Tested on: Zika virus strain MR766
Format: cell-based
Details: for effect on replication of Zika virus (percent infected cells, FIG. 1): Vero cells infected 48 h with ZIKV MR766, MOI 0.3-0.5, compound added at time of infection, DMSO control
Experimental: FIG. 1 is a bar graph showing the results of experiments wherein Vero cells were infected for 48 h with Zika virus MR766 and stained for DNA and double stranded viral RNA. The indicated compounds at the indicated concentrations were added at the time of infection. Mean percent infected cells of n=3 experiments are shown +/−SD.
FIG. 2 is a set of images of Vero cells infected for 48 h with Zika virus MR766 and stained for DNA (blue) and double stranded viral RNA (green). Either Lanatoside 6 nM or DMSO (v/v) was added at the time of infection. Mean percent infected cells of n=3 experiments are shown +/−SD.
The effects of a number of small molecules previously reported to be effective in inhibiting replication of related viruses were evaluated on replication of the Zika virus using an immunofluorescence readout for viral protein expression. Molecules tested included Ivermectin 18898-1G; Mycophenolic acid M3536-50MG; Brequinar SML0113-5MG; Sodium Oxamate O2751-5G; Chloroquine C6628-25G; Hydroxychloroquine H0915-5MG; and Lanatoside C L2261-100MG.
Cells: Vero cells (ATCC, CCL-81) were cultured in complete Dulbecco's Modified Eagle Media (Sigma) with 10% FBS (Invitrogen) and 2 mM L-glutamine (Invitrogen).
Viruses: Zika virus strain MR766 was kindly provided by Dr. Robert Tesh at the World Reference Center for Emerging Viruses and Arboviruses at the University of Texas Medical Branch in Galveston Tex. MR766 was obtained originally from a Rhesus macaque in Uganda in 1947. Viruses were propagated in Vero cells (ATCC) (Dick et al., 1952) and the titer determined by standard plaque assays and immunofluorescence imaging assays for E protein expression.
Infection assays: Vero cells were plated the night before in a 384-well plate format. The following day the cells were infected with ZIKV MR766 at an MOI of 0.3-0.5 in the presence of the indicated compounds or the DMSO control (v/v). 48 hr post-infection the cells are fixed with formalin, permeabilized with 0.1% Triton-X100 and immunostained using the 4G2 monoclonal antibody against the E protein. The cells were then incubated with an Alexa Fluor 488 goat anti-mouse secondary and stained for DNA with Hoechst 33342. The cells were imaged on an automated Image Express Micro (IXM) microscope at 4× magnification. Images were analyzed using the MetaXpress software program to determine the total cells per well, and the percentage of infected cells in each well.

22,23-dihydroavermectin B1a+22,23-dihydroavermectin B1b [ivermectin]
effect on replication of Zika virus (percent infected cells, FIG. 1): significant effect

CC(=O)O[C@H]1C[C@H](O[C@H]2[C@@H](O)C[C@H](O[C@H]3[C@@H](O)C[C@H](O[C@H]4CC[C@@]5(C)[C@H](CC[C@@H]6[C@@H]5C[C@@H](O)[C@]5(C)[C@@H](C7=CC(=O)OC7)CC[C@]65O)C4)O[C@@H]3C)O[C@@H]2C)O[C@H](C)[C@H]1O[C@@H]1O[C@H](CO)[C@@H](O)[C@H](O)[C@H]1O [Lanatoside C, 3β-[4-O-β-D-Glycopyranosyl-4-O-(3-O-acetyl-β-D-digitoxopyranosyl)-4-O-β-D-digitoxopyranosyl-β-D-digitoxopyranosyl]-12β,14-dihydroxy-5β,14β-card-20(22)-enolid]
effect on replication of Zika virus (percent infected cells, FIG. 1): significant effect
stopping replication of the virus (FIG. 2) (Vero cells infected 48 h with ZIKV MR766, Lanatoside 6 nM vs DMSO added at time of infection): effective at stopping replication of the virus

NC(=O)c1ncn([C@@H]2O[C@H](CO)[C@@H](O)[C@H]2O)n1 [ribavirin, 1-[(2R,3R,4S,5R)-3,4-dihydroxy-5-(hydroxymethyl)oxolan-2-yl]-1H-1,2,4-triazole-3-carboxamide]
effect on replication of Zika virus (percent infected cells, FIG. 1): significant effect

— patent publication US20190216835A1 (priority 2016, published 2019)
